Literature values, collected in US10421941B2, “Process for improving the solubility of cell culture media” (Merck Patent GmbH, priority 2014, dated 2019).

Settings: water / aqueous solvents

SMILES | solubility (in words)
CC(C)[C@H](N)C(=O)O [valine] | moderate
CC(C)C[C@H](N)C(=O)O [leucine] | moderate
CC[C@H](C)[C@H](N)C(=O)O [isoleucine] | moderate
N[C@@H](CSSC[C@H](N)C(=O)O)C(=O)O [cystine] | poorly soluble
